From ChEMBL document CHEMBL3045786, “Insect antifeedant activity of tetranortriterpenoids from the Rutales. A perusal of structural relations” (2002)

What follows are compounds tested on Spodoptera litura (assay: Feeding index against larvae of Spodoptera litura in castor leaves =).

In order of rising PFI:
1. COC(=O)[C@H]1OC[C@]23[C@@H]1[C@](C)([C@]14O[C@@]1(C)[C@H]1C[C@@H]4O[C@@H]4OC=C[C@@]41O)[C@H](O)[C@@H]1OC[C@](C(=O)OC)([C@H](O)C[C@@H]2O)[C@H]13 [AZADIRACHTOL]  6.1%
2. C/C=C(\C)C(=O)O[C@@H]1[C@@H]2OC[C@]3(C)[C@H](O)C[C@H](O)[C@@]4(CO[C@H](C(=O)OC)[C@H]4[C@]1(C)[C@]14O[C@@]1(C)[C@H]1C[C@@H]4O[C@@H]4OC=C[C@@]41O)[C@@H]23 [3-TIGLOYL MELIACARPIN]  13.3%
3. CC(=O)O[C@@H]1[C@H](O)[C@H]2C(C)(C)C(=O)C=C[C@]2(C)[C@H]2CC[C@@]3(C)[C@H](C45CC(O)OC4O5)C[C@@H]4O[C@@]43[C@]12C (some centres undefined) [NIMONOL PP2]  15.8%
4. COC(=O)C[C@H]1[C@]2(C)C3=C(C)[C@H](C4=CC(=O)OC4O)C[C@H]3O[C@@H]2[C@H](OC(C)=O)[C@@H]2[C@]1(C)C(=O)C=C[C@@]2(C)C(=O)OC (some centres undefined) [NIMBIN PP]  19.9%
5. CC(=O)O[C@@H]1[C@H](O)[C@H]2C(C)(C)C(=O)C=C[C@]2(C)[C@H]2CC[C@@]3(C)[C@H](C4=CC(O)OC4=O)C[C@@H]4O[C@@]43[C@]12C (some centres undefined) [NIMONOLIDE]  21.3%
6. CC1(C)C(=O)C=C[C@@]2(C)C1=C(O)C(=O)[C@]1(C)[C@@H]2CC[C@@]2(C)[C@H](C3=CC(O)OC3=O)C[C@H]3O[C@]321 (some centres undefined) [CEDRELONE PP-OH]  22.4%
7. C/C=C(\C)C(=O)O[C@H]1C[C@@H](OC(C)=O)[C@@]2(C)CO[C@H]3[C@H]4O[C@@H]5C[C@@H](C6=CC(=O)OC6O)C(C)=C5[C@@]4(C)[C@H](CC(=O)OC)[C@]1(C)[C@@H]32 (some centres undefined) [SALANNIN PP]  25.1%
8. C/C=C(\C)C(=O)O[C@H]1C[C@@H](OC(C)=O)[C@@]2(C)CO[C@H]3[C@H]4O[C@@H]5C[C@@H](C6=CC(O)OC6=O)C(C)=C5[C@@]4(C)[C@H](CC(=O)OC)[C@]1(C)[C@@H]32 (some centres undefined) [SALANNOLIDE]  26.3%
9. COC(=O)C[C@H]1[C@]2(C)C3=C(C)[C@H](C4=CC(O)OC4=O)C[C@H]3O[C@@H]2[C@H](OC(C)=O)[C@@H]2[C@]1(C)C(=O)C=C[C@@]2(C)C(=O)OC (some centres undefined) [NIMBINOLIDE]  26.7%
10. C/C=C(\C)C(=O)O[C@H]1C[C@@H](OC(C)=O)[C@@]2(C(=O)OC)CO[C@H]3[C@@H](O)[C@@](C)([C@]45O[C@@]4(C)[C@H]4C[C@@H]5O[C@@H]5OC=C[C@@]54O)[C@H]4[C@]1(CO[C@]4(O)C(=O)OC)[C@@H]32 [AZADIRACTIN]  27.5%
11. CC(=O)O[C@@H]1[C@H](O)[C@H]2C(C)(C)C(=O)CC[C@]2(C)[C@H]2CC[C@]3(C)C(=CC[C@H]3C3=CC(O)OC3=O)[C@]12C (some centres undefined) [ISOMELDENIN PP]  28.3%
12. C/C=C(\C)C(=O)O[C@H]1C[C@@H](O)[C@@]2(C)CO[C@H]3[C@H]4O[C@@H]5C[C@@H](C6=CC(O)OC6=O)C(C)=C5[C@@]4(C)[C@H](CC(=O)OC)[C@]1(C)[C@@H]32 (some centres undefined) [DESACETYL SALANNOLIDE]  28.44%
13. C/C=C(\C)C(=O)O[C@H]1C[C@@H](OC(C)=O)[C@@]2(C)CO[C@@H]3[C@@H](O)[C@@](C)([C@]45O[C@@]4(C)[C@H]4C[C@@H]5O[C@@H]5OC=C[C@@]54O)[C@H]4[C@]1(CO[C@]4(O)C(=O)OC)[C@@H]32 [AZADIRACHTIN-D]  28.9%
14. CC(=O)O[C@@H]1C[C@H]2C(C)(C)C(=O)C=C[C@]2(C)[C@H]2CC[C@@]3(C)[C@H](C4=CC(O)OC4=O)C(=O)[C@H]4O[C@]43[C@@]21C (some centres undefined) [EPOXY AZADIRADIONE PP]  29.4%
15. C/C=C(\C)C(=O)O[C@H]1C[C@@H](OC(C)=O)[C@@]2(C(=O)OC)CO[C@H]3[C@@H](O)[C@@](C)([C@]45O[C@@]4(C)[C@H]4C[C@@H]5O[C@@H]5OC=C[C@@]54O)[C@@H]4[C@H](O)OC[C@@]14[C@@H]32 [AZADIRACHTIN H]  30.5%
16. C/C=C(\C)C(=O)O[C@H]1C[C@@H](OC(C)=O)[C@@]2(C)CO[C@H]3[C@@H](O)[C@@](C)([C@]45O[C@@]4(C)[C@H]4C[C@@H]5O[C@@H]5OC=C[C@@]54O)[C@@H]4[C@H](O)OC[C@@]14[C@@H]32 [AZADIRACHTIN-I]  32.2%
17. COC(=O)C[C@H]1[C@]2(C)C3=C(C)[C@H](c4ccoc4)C[C@H]3O[C@@H]2[C@H](OC(C)=O)[C@@H]2[C@]1(C)C(=O)C=C[C@@]2(C)C(=O)OC [NIMBIN]  33.7%
18. COC(=O)C[C@H]1[C@]2(C)C3=C(C)[C@H](c4ccoc4)C[C@H]3O[C@@H]2[C@H](O)[C@@H]2[C@]1(C)C(=O)C=C[C@@]2(C)C(=O)OC [DEACETYLNIMBIN]  34.7%
19. CC(=O)O[C@@H]1C[C@H]2C(C)(C)C(=O)C=C[C@]2(C)[C@H]2CC[C@]3(C)C(=CC(=O)[C@H]3C3=CC(O)OC3=O)[C@@]21C (some centres undefined) [AZADIRADIONE PP]  34.7%
20. COC(=O)C[C@H]1[C@]2(C)C3=C(C)[C@H](C4=CCOC4=O)C[C@H]3O[C@@H]2[C@H](O)[C@@H]2[C@]1(C)C(=O)C=C[C@@]2(C)C(=O)OC [DESACETYLNIMBIN MW]  35.1%
21. C/C=C(/C)C(=O)O[C@H]1C[C@@H](OC(C)=O)[C@@]2(C)CO[C@H]3[C@H]4O[C@@H]5C[C@@H](c6ccoc6)C(C)=C5[C@@]4(C)[C@H](CC(=O)OC)[C@]1(C)[C@@H]32 [SALANNIN]  36.3%
22. COC(=O)C[C@H]1[C@]2(C)C3=C(C)[C@H](c4ccoc4)C[C@H]3O[C@@H]2[C@@H]2OC(=O)[C@]3(C)C=CC(=O)[C@@]1(C)[C@@H]23 [NIMBOLIDE]  37%
23. CC(=O)O[C@@H]1C[C@H]2C(C)(C)C(=O)C=C[C@]2(C)[C@H]2CC[C@@]3(C)[C@H](c4ccoc4)OC(=O)[C@H]4O[C@]43[C@@]21C [GEDUNIN]  37.3%
24. C/C=C(\C)C(=O)O[C@H]1CC(=O)[C@@]2(C)CO[C@H]3[C@H]4O[C@@H]5C[C@@H](c6ccoc6)C(C)=C5[C@@]4(C)[C@H](CC(=O)OC)[C@]1(C)[C@@H]32 [3-OXOSALANNIN]  42.9%
25. COC(=O)C[C@H]1[C@]2(C)C3=C(C)[C@H](C4=CCOC4=O)C[C@H]3O[C@@H]2[C@H](OC(C)=O)[C@@H]2[C@]1(C)C(=O)C=C[C@@]2(C)C(=O)OC [NIMBIN MW]  42.9%
26. CC1(C)C(=O)[C@H]2O[C@H]2[C@@]2(C)C1=C(O)C(=O)[C@]1(C)[C@@H]2CC[C@@]2(C)[C@H](c3ccoc3)C[C@H]3O[C@]321 [CEDRELONE EPOXIDE]  43.5%
27. CC(=O)O[C@@H]1[C@H](O)[C@H]2C(C)(C)C(=O)C=C[C@]2(C)[C@H]2CC[C@]3(C)C(=CC[C@H]3C3=CCOC3=O)[C@]12C [NIMONOL MW]  44.2%
28. CC(=O)O[C@@H]1C(=O)[C@H]2C(C)(C)C(=O)C=C[C@]2(C)[C@H]2CC[C@]3(C)C(=CC[C@H]3c3ccoc3)[C@]12C [6-OXONIMONOL]  44.2%
29. CC1(C)C(=O)C=C[C@@]2(C)C1=C(O)C(=O)[C@]1(C)[C@@H]2CC[C@@]2(C)[C@H](C3=CO[C@@H]4O[C@H]34)C[C@H]3O[C@]321 [CEDRELONE-22-EPOXIDE]  44.2%
30. C/C=C(\C)C(=O)O[C@H]1C[C@@H](O)[C@@]2(C)CO[C@H]3[C@H]4O[C@@H]5C[C@@H](c6ccoc6)C(C)=C5[C@@]4(C)[C@H](CC(=O)OC)[C@]1(C)[C@@H]32 [DESACETYL SALANNIN]  44.67%
31. C/C=C(\C)C(=O)O[C@H]1C[C@@H](OC(C)=O)[C@@]2(C)CO[C@H]3[C@H]4O[C@@H]5C[C@@H](C6=CCOC6=O)C(C)=C5[C@@]4(C)[C@H](CC(=O)OC)[C@]1(C)[C@@H]32 [SALANNOBUTYROLACTONE]  46.3%
32. CC(=O)O[C@@H]1[C@H](O)[C@H]2C(C)(C)C(=O)C=C[C@]2(C)[C@H]2CC[C@]3(C)C(=CC[C@H]3c3ccoc3)[C@]12C [NIMONOL]  47.3%
33. CC(=O)O[C@@H]1C[C@H]2C(C)(C)C(=O)C=C[C@]2(C)[C@H]2CC[C@]3(C)C(=CC[C@H]3c3ccoc3)[C@@]21C [AZADIRONE]  48.3%
34. C/C=C(\C)C(=O)O[C@@H]1[C@@H]2C=C3[C@@H]4CC(=O)O[C@@H](c5ccoc5)[C@]4(C)CC[C@@H]3[C@@](C)(C2=O)[C@@H]([C@@H](O)C(=O)OC)C1(C)C [SWIETENINE]  49.1%
35. CC(=O)O[C@@H]1C[C@H]2C(C)(C)C(=O)C=C[C@]2(C)[C@H]2CC[C@@]3(C)[C@H](c4ccoc4)C(=O)[C@H]4O[C@]43[C@@]21C [EPOXYAZADIRADIONE]  50.4%
36. CC1(C)C(=O)CC[C@@]2(C)C1=C(O)C(=O)[C@]1(C)[C@@H]2CC[C@@]2(C)[C@H](c3ccoc3)C[C@H]3O[C@]321 [DIHYDROCEDRELONE]  50.5%
37. CC1(C)C(=O)C=C[C@@]2(C)C1=C(O)C(=O)[C@]1(C)[C@@H]2CC[C@@]2(C)[C@H](c3ccoc3)C[C@H]3O[C@]321 [CEDRELONE]  51.5%
38. CC(=O)OC1=C2C(C)(C)C(=O)[C@H]3O[C@H]3[C@]2(C)[C@H]2CC[C@@]3(C)[C@H](c4ccoc4)C[C@H]4O[C@]43[C@]2(C)C1=O [CEDRELONEEPOXIDE ACETATE]  53.2%
39. COC1=C2C(C)(C)C(=O)[C@H]3O[C@H]3[C@]2(C)[C@H]2CC[C@@]3(C)[C@H](c4ccoc4)C[C@H]4O[C@]43[C@]2(C)C1=O [METHYL ETHER CEDRELONEEPOXIDE]  54%
40. CC(=O)OC1=C2C(C)(C)C(=O)C=C[C@]2(C)[C@H]2CC[C@@]3(C)[C@H](c4ccoc4)C[C@H]4O[C@]43[C@]2(C)C1=O [CEDRELONE ACETATE]  55%
41. CC1(C)C(=O)C=C[C@@]2(C)C1=C(O)C(=O)[C@@]1(C)C3=CC[C@@H](c4ccoc4)[C@]3(C)CC[C@@H]12 [DESEPOXYCEDRELONE]  55.3%
42. CC(=O)O[C@@H]1C[C@H]2C(C)(C)CC(=O)C=C[C@]2(C)[C@H]2CC[C@]3(C)C(=CC[C@H]3c3ccoc3)[C@@]21C [HOMOAZADIRADIONE]  60%
43. CC(=O)OC1[C@H](O)[C@H]2C(C)(C)C(=O)CC[C@]2(C)[C@H]2CC[C@]3(C)C(=CC[C@H]3c3ccoc3)[C@]12C (some centres undefined) [ISOMELDENIN]  60.6%
44. C=C1[C@@H]2CC[C@@]3(C)[C@H](c4ccoc4)OC(=O)C[C@]13O[C@H]1CC(=O)C(C)(C)[C@H](CC(=O)OC)[C@]12C [METHYLANGOLENSATE]  65.3%
